Test results taken from patent US20240287172A1, “PROTEIN BINDERS TO IRHOM2 EPITOPES” (SCIRHOM GMBH, priority 2019, published 2024).

Tests used:
[1] = system: LPS-induced release of endogenous TNFα from PBMCs from patients suffering from rheumatoid arthritis; assay: ELISA-based TNFα release assay, LPS-induced, PBMCs from RA-patients; assay type: cell-based; details: PBMC; LPS 1 ng/ml, 1.5 hours; chimeric antibodies (CHO) and human IgG at 1 μg/ml; Batimastat at 10 μM
Method: (§1) In brief, on day 1, Nunc black MaxiSorp® 96-well plates (Thermo Fisher Scientific, USA) were coated overnight with 100 μl per well of mouse anti-human TNFα capture antibody (provided as part of the DuoSet ELISA kit) at 4 μg/ml TBS at 4° C. On day 2, the capture antibody solution was removed and MaxiSorp® plates were blocked with 300 μl per well of TBS, 1% BSA at room temperature for 3 hours. Meanwhile, 20,000 PBMC from patients suffering from rheumatoid arthritis (STEMCELL Technologies, Canada) cells in 80 μl of normal growth medium were seeded in each well of Greiner CELLSTAR V-bottom 96-well plates (Thermo Fisher Scientific, USA) and pre-incubated with 20 μl per well of standard growth medium supplemented with Batimastat (BB94, Abcam, UK) at 50 μM as positive control (for a final concentration of 10 μM in the resulting 100 μl sample volume), human IgG antibody (Thermo Fisher Scientific, USA) at 5 μg/ml as isotype control (for a final concentration of 1 μg/ml in the resulting 100 μl sample volume) or antibodies of the invention at 5 μg/ml (for a final concentration of 1 μg/ml in the resulting 100 μl sample volume) at 37° C., 5% CO2 for 30 minutes. […] Using an infinite M1000 (Tecan Group, Switzerland) microplate reader, the fluorescence of each well was collected at an excitation wavelength of 435 nm and an emission wavelength of 555 nm.

[2] = system: LPS-induced release of endogenous TNFα from PBMCs from healthy donors; assay: ELISA-based TNFα release assay, LPS-induced, PBMCs from healthy donors; assay type: cell-based; details: Homo sapiens, PBMC; LPS 50 ng/ml, 2 hours; recombinant murine antibodies and IgG at 1 μg/ml; Batimastat at 10 μM
Method: as §1, with “from healthy donors” for “from patients suffering from rheumatoid arthritis”, “volume), mouse” for “volume), human”

CNC(=O)[C@H](Cc1ccccc1)NC(=O)[C@H](CC(C)C)[C@H](CSc1cccs1)C(=O)NO [Batimastat]
inhibition at 10 µM [1]: 99.9% | inhibition at 10 µM [2]: 99.6%
